Results reported in publication PMC9760738, “Pharmacokinetics, absorption, distribution, metabolism and excretion of the MEK inhibitor zapnometinib in rats” (Frontiers in Pharmacology, 2022).
Where two headings read alike, the source gives them in different places.

Tests used:
MEK = system: MEK; design: method as in Lorusso et al., 2005; conditions: ref Lorusso et al., 2005; read-out: 50% inhibitory concentration (IC50); cited from earlier work
[1] = design: method as in Wabnitz et al., 2004; conditions: rat; ref Wabnitz et al., 2004; cited from earlier work
[2] = design: method as in Wabnitz et al., 2004; conditions: monkey; ref Wabnitz et al., 2004; cited from earlier work
[3] = Metabolite profiling of pooled feces extracts by radio-HPLC (Group 2); format: in vivo, rat
Method: (§1) Metabolite profiling was performed by HPLC analysis according to the company’s SOP of plasma (Group 3), urine (Group 2) and feces (Group 2) samples. Briefly, for metabolite profiling and identification, radioactivity (cpm) was measured in HPLC eluent fractions that had previously been collected at 12 s intervals for the duration of the run (65 min) into 96-well Deep Well LumaPlates and dried in a centrifugal evaporator. A Microbeta2 scintillation counter was used to count each plate, with wells simultaneously counted for 2 min, after an initial 5 min delay. A subsample of plasma was analyzed (ca 2 ml) taken from individual animals to provide representative samples, for each sex, at 2, 8 and 168 h post dose (n = 6). Equal proportions of the total urine weight voided from Group 2 animals was pooled to provide representative samples for each sex at 0–6 h, 6–24 h and 24–48 h post dose (n = 6). Equal proportions of the total feces homogenate generated from the samples voided by the three rats (Group 2) were pooled to provide representative samples for each sex at 0–24 and 24–48 h post dose ([…]). Sample preparation was carried out due to the company’s SOPs (see Supplementary Methods). The extractability was ≥95.0% (95.0–100%) TRR (Total Radioactive Residue) for plasma and ≥88.3% (88.3%–91.3%) TRR for feces. As reference, a standard solution of zapnometinib (0.1 mg/ml in acetonitrile) was used. To assess HPLC method suitability, a column recovery was assessed on each representative sample (one per matrix). The recovery of radioactivity from the HPLC column was determined by collecting the column eluent, following an injection of a representative sample (one per matrix), and determining the radioactive content by submitting aliquots for LSC analysis. The results of these analyses were between 93.8%–105.1% column recoveries.
Next, radioactive metabolic components of zapnometinib in urine, plasma and feces extracts were isolated and profiled. The components were quantified by fraction collection/scintillation analysis, as appropriate to the radioactivity concentrations. Mass spectroscopy was used to propose identities of the major circulatory and excreted metabolites, and to correlate the metabolites detected in the different matrices. Components identified by LC-MS/MS were related to the quantified HPLC analysis by comparison of related radiochromatograms and comparison of elution order. Representative HPLC radiochromatograms of pooled feces extracts collected during 0–24 and 24–48 h post dose from male and female rats (which reveal the main metabolites) were qualitatively similar with some minor sex differences (Figure 3). […]
times with the following solvents following the same procedure: Extract 2 – Acetonitrile/methanol 4:1 (v/v); Extract 3 – Acetonitrile/Water 1:1 (v/v). Duplicate weighed aliquots of each supernatant (ca 0.1 mL) were mixed directly with Ultima Gold scintillation cocktail for measurement of radioactivity concentrations. The extracted residue was allowed to air dry and the total weight was recorded. Duplicate weighed portions (ca 0.05g) were taken for radioassay after oxidation. The extracts were combined and concentrated under a constant stream of nitrogen gas to near dryness and reconstituted in acetonitrile/0.1% aqueous formic acid, 1:1 (v/v) by vortex mixing, sonication and centrifugation at 10000 × g for 5 min at 4°C.
The concentrates were weighed, and duplicate weighed aliquots (0.025 – 0.05 mL) taken for measurement of radioactivity to calculate recovery following concentration. An aliquot of each concentrated extract was injected into the HPLC. […]
(100 mL) in purified water (600 mL) and methanol (300 mL). After measurement of total sample weight (as appropriate), replicate portions of diluted dose solutions (ca 0.1 mL), plasma (ca 0.05 – 0.25 mL), urine (ca 0.05 – 0.25 mL), expired air trap solution (ca 1 mL) and cage wash (ca 1 mL) were mixed directly with Ultima Gold scintillation cocktail (5 mL; 15 mL for […]

[4] = Metabolite profiling of plasma extracts by radio-HPLC (Group 3); format: in vivo, rat; conditions: male plasma
Method: as §1
Next, radioactive metabolic components of zapnometinib in urine, plasma and feces extracts were isolated and profiled. The components were quantified by fraction collection/scintillation analysis, as appropriate to the radioactivity concentrations. Mass spectroscopy was used to propose identities of the major circulatory and excreted metabolites, and to correlate the metabolites detected in the different matrices. Components identified by LC-MS/MS were related to the quantified HPLC analysis by comparison of related radiochromatograms and comparison of elution order. Representative HPLC radiochromatograms of pooled feces extracts collected during 0–24 and 24–48 h post dose from male and female rats (which reveal the main metabolites) were qualitatively similar with some minor sex differences (Figure 3).

Amount in pooled feces extracts ([3]; 0-24 hours, female rats) | Amount in pooled feces extracts ([3]; 0-24 hours, male rats) | Amount in pooled feces extracts ([3]; 24-48 hours, female rats) | Amount in pooled feces extracts ([3]; Total (0-48 hours), female rats) | Amount in pooled feces extracts ([3]; Total (0-48 hours), male rats) | Amount detected in plasma by mass spectrometry [4] | SMILES | IC50 (MEK) | Renal elimination [1] | Renal elimination [2]
 |  |  |  |  |  | O=C(NOCC1CC1)c1ccc(F)c(F)c1Nc1ccc(I)cc1Cl [CI-1040, 2-(2-chloro-4-iodo-phenylamino)-Ncyclopropylmethoxy-3,4-difluoro-benzamide] | […] | < 5 % of dose | < 5 % of dose
16.10 % Dose | 4.21 % Dose | 2.48 % Dose | 18.58 % Dose | 4.21 % Dose | trace amounts | CC(C)[C@H](NC(=O)c1ccc(F)c(F)c1Nc1ccc(I)cc1Cl)C(=O)O [M3] |  |  | 
